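How tested: cells in 96-well plates exposed to compound for 48 hours at five concentrations. At the TGI there is no net growth.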
Assays:
Test in all cases: NCI anticancer screen, dose series, 48 h
786-0 renal = system: 786-0 renal
A498 renal = system: A498 renal
ACHN renal = system: ACHN renal
BT-549 breast = system: BT-549 breast
CAKI-1 renal = system: CAKI-1 renal
CCRF-CEM leukemia = system: CCRF-CEM leukemia
COLO 205 colon = system: COLO 205 colon
DU-145 prostate = system: DU-145 prostate
EKVX NSCLC = system: EKVX NSCLC
HCC-2998 colon = system: HCC-2998 colon
HCT-116 colon = system: HCT-116 colon
HCT-15 colon = system: HCT-15 colon
HL-60(TB) leukemia = system: HL-60(TB) leukemia
HOP-62 NSCLC = system: HOP-62 NSCLC
HOP-92 NSCLC = system: HOP-92 NSCLC
HS 578T breast = system: HS 578T breast
HT29 colon = system: HT29 colon
IGROV1 ovarian = system: IGROV1 ovarian
K-562 leukemia = system: K-562 leukemia
KM12 colon = system: KM12 colon
LOX IMVI melanoma = system: LOX IMVI melanoma
M14 melanoma = system: M14 melanoma
MALME-3M melanoma = system: MALME-3M melanoma
MCF7 breast = system: MCF7 breast
MDA-MB-435 = system: MDA-MB-435
MDA-N = system: MDA-N
MOLT-4 leukemia = system: MOLT-4 leukemia
NCI-H23 lung = system: NCI-H23 lung
NCI-H460 lung = system: NCI-H460 lung
NCI-H522 lung = system: NCI-H522 lung
NCI/ADR-RES ovarian = system: NCI/ADR-RES ovarian
OVCAR-3 ovarian = system: OVCAR-3 ovarian
OVCAR-5 ovarian = system: OVCAR-5 ovarian
OVCAR-8 ovarian = system: OVCAR-8 ovarian
PC-3 prostate = system: PC-3 prostate
RPMI-8226 leukemia = system: RPMI-8226 leukemia
RXF 393 renal = system: RXF 393 renal
SF-268 CNS = system: SF-268 CNS
SF-539 CNS = system: SF-539 CNS
SK-MEL-2 melanoma = system: SK-MEL-2 melanoma
SK-MEL-28 melanoma = system: SK-MEL-28 melanoma
SK-MEL-5 melanoma = system: SK-MEL-5 melanoma
SK-OV-3 ovarian = system: SK-OV-3 ovarian
SN12C renal = system: SN12C renal
SNB-19 CNS = system: SNB-19 CNS
SNB-75 CNS = system: SNB-75 CNS
SR leukemia = system: SR leukemia
SW-620 colon = system: SW-620 colon
T-47D breast = system: T-47D breast
UACC-257 melanoma = system: UACC-257 melanoma
UACC-62 melanoma = system: UACC-62 melanoma
UO-31 renal = system: UO-31 renal
A549 NSCLC = system: A549 NSCLC
MDA-MB-231 breast = system: MDA-MB-231 breast
OVCAR-4 ovarian = system: OVCAR-4 ovarian
SF-295 CNS = system: SF-295 CNS
U251 CNS = system: U251 CNS

## CCCSc1ccc2[nH]c(N3C(=O)/C(=C/c4ccc(O)c(OC)c4)N=C3c3ccccc3)cc2c1
786-0 renal
  TGI: > 100 µM
A498 renal
  TGI: 93 µM
ACHN renal
  TGI: > 100 µM
BT-549 breast
  TGI: 46.4 µM
CAKI-1 renal
  TGI: > 100 µM
CCRF-CEM leukemia
  TGI: 93.8 µM
COLO 205 colon
  TGI: 19.5 µM
DU-145 prostate
  TGI: > 100 µM
EKVX NSCLC
  TGI: 67.4 µM
HCC-2998 colon
  TGI: 14.1 µM
HCT-116 colon
  TGI: > 100 µM
HCT-15 colon
  TGI: 32 µM
HL-60(TB) leukemia
  TGI: 11.6 µM
HOP-62 NSCLC
  TGI: > 100 µM
HOP-92 NSCLC
  TGI: > 100 µM
HS 578T breast
  TGI: 14.3 µM
HT29 colon
  TGI: 88.9 µM
IGROV1 ovarian
  TGI: > 100 µM
K-562 leukemia
  TGI: > 100 µM
KM12 colon
  TGI: > 100 µM
LOX IMVI melanoma
  TGI: > 100 µM
M14 melanoma
  TGI: 35.2 µM
MALME-3M melanoma
  TGI: 84 µM
MCF7 breast
  TGI: > 100 µM
MDA-MB-435
  TGI: > 100 µM
MDA-N
  TGI: 5.26 µM
MOLT-4 leukemia
  TGI: 20.8 µM
NCI-H23 lung
  TGI: 61.5 µM
NCI-H460 lung
  TGI: 10.1 µM
NCI-H522 lung
  TGI: 24.3 µM
NCI/ADR-RES ovarian
  TGI: > 100 µM
OVCAR-3 ovarian
  TGI: > 100 µM
OVCAR-5 ovarian
  TGI: 44.3 µM
OVCAR-8 ovarian
  TGI: > 100 µM
PC-3 prostate
  TGI: > 100 µM
RPMI-8226 leukemia
  TGI: 34.3 µM
RXF 393 renal
  TGI: > 100 µM
SF-268 CNS
  TGI: > 100 µM
SF-539 CNS
  TGI: 49 µM
SK-MEL-2 melanoma
  TGI: 2.73 µM
SK-MEL-28 melanoma
  TGI: > 100 µM
SK-MEL-5 melanoma
  TGI: 16.1 µM
SK-OV-3 ovarian
  TGI: 76.3 µM
SN12C renal
  TGI: 50.4 µM
SNB-19 CNS
  TGI: > 100 µM
SNB-75 CNS
  TGI: > 100 µM
SR leukemia
  TGI: > 100 µM
SW-620 colon
  TGI: > 100 µM
T-47D breast
  TGI: > 100 µM
UACC-257 melanoma
  TGI: 51.8 µM
UACC-62 melanoma
  TGI: 19.8 µM
UO-31 renal
  TGI: > 100 µM

## CCOC(=O)c1nc2ccccc2nc1Nc1cc(OC)c(OC)c(OC)c1
786-0 renal
  TGI: > 100 µM
A549 NSCLC
  TGI: > 100 µM
ACHN renal
  TGI: > 100 µM
BT-549 breast
  TGI: > 100 µM
CAKI-1 renal
  TGI: > 100 µM
CCRF-CEM leukemia
  TGI: > 100 µM
COLO 205 colon
  TGI: > 100 µM
DU-145 prostate
  TGI: > 100 µM
EKVX NSCLC
  TGI: > 100 µM
HCC-2998 colon
  TGI: > 100 µM
HCT-116 colon
  TGI: > 100 µM
HCT-15 colon
  TGI: > 100 µM
HL-60(TB) leukemia
  TGI: > 100 µM
HOP-62 NSCLC
  TGI: > 100 µM
HOP-92 NSCLC
  TGI: > 100 µM
HS 578T breast
  TGI: > 100 µM
HT29 colon
  TGI: > 100 µM
IGROV1 ovarian
  TGI: > 100 µM
K-562 leukemia
  TGI: > 100 µM
KM12 colon
  TGI: > 100 µM
M14 melanoma
  TGI: > 100 µM
MALME-3M melanoma
  TGI: > 100 µM
MCF7 breast
  TGI: > 100 µM
MDA-MB-231 breast
  TGI: > 100 µM
MDA-MB-435
  TGI: > 100 µM
MDA-N
  TGI: > 100 µM
MOLT-4 leukemia
  TGI: > 100 µM
NCI-H23 lung
  TGI: > 100 µM
NCI-H460 lung
  TGI: > 100 µM
NCI-H522 lung
  TGI: > 100 µM
NCI/ADR-RES ovarian
  TGI: > 100 µM
OVCAR-3 ovarian
  TGI: > 100 µM
OVCAR-4 ovarian
  TGI: > 100 µM
OVCAR-5 ovarian
  TGI: > 100 µM
RPMI-8226 leukemia
  TGI: > 100 µM
SF-268 CNS
  TGI: > 100 µM
SF-295 CNS
  TGI: > 100 µM
SF-539 CNS
  TGI: > 100 µM
SK-MEL-2 melanoma
  TGI: > 100 µM
SK-MEL-28 melanoma
  TGI: > 100 µM
SK-MEL-5 melanoma
  TGI: > 100 µM
SK-OV-3 ovarian
  TGI: > 100 µM
SN12C renal
  TGI: > 100 µM
SNB-19 CNS
  TGI: > 100 µM
SNB-75 CNS
  TGI: > 100 µM
SR leukemia
  TGI: > 100 µM
T-47D breast
  TGI: > 100 µM
U251 CNS
  TGI: > 100 µM
UACC-62 melanoma
  TGI: > 100 µM
UO-31 renal
  TGI: > 100 µM
